Patent US6303596A, “Use of taurolidine for treatment of leukemias” (priority 2000, dated 2001)
Read-outs that look alike come from different tables or passages of the source.

Key:
tissue factor (TF) = assay: LPS-induced tissue factor (TF) expression in PBMC, ELISA; format: cell-based, human
Procedure: FIG. 2A represents MM6 cells; FIG. 2B represents PBMC. The cells were induced with LPS (hatched bars: 100 ng/ml LPS in RPMI supplemented with 10% BCS (RPMI+10% BCS); solid bars: 10 ng/ml in AIM-V+0.01% BCS) in the presence of varying concentrations of taurolidine,or with a dilution of the vehicle equivalent to that given to cells receiving 100 μg/ml taurolidine. After four hours, cells were collected and lysates were prepared for TF ELISA. Data are expressed as percent of TF antigen measured in cells treated with LPS alone (no taurolidine or vehicle). Experiments were performed with duplicate samples and were repeated at least three times. Values shown are mean±SEM of all experiments.
For induction of TF or TNFα expression, MM6 cells or PBMC were cultured either in RPMI supplemented with 10% BCS or in AIM-V+0.01% BCS, and stimulated by adding LPS to final concentrations of 10 to 100 ng/ml. […] Except as noted, taurolidine and LPS were added to the cell cultures simultaneously. For TF determination, cells and culture media together were treated by adding Triton X-100 (1% final) and EDTA (7 mmol/L final), and the resulting lysates assayed by ELISA. […] For TNFα determination, cells were removed by centrifugation for 5 min at 250×g, and the supernatants were assayed by ELISA.

granulocytes = assay: TUNEL / propidium iodide flow cytometry, granulocytes; format: cell-based, human; settings: for cytotoxicity at 100 µg/mL: Homo sapiens
Procedure: Human granulocytes were isolated from heparinized blood by diluting blood 1:1 with 6% dextran to sediment RBC, then centrifuging to obtain leukocyte rich plasma. The remaining RBC were lysed by 20 second incubation with 0.2% NaCl. After lysis, NaCl was added to a final concentration of 0.9%, the sample was centrifuged, and the cell pellet resuspended in HBSS containing 0.5% HSA. An equal volume of Histopaque (Sigma) was layered underneath the cell suspension. Upon centrifugation, the PBMC remained above the Histopaque layer, while the granulocytes were sedimented. Purity of collected granulocytes was assayed by flow cytometry using PE-conjugated […].
In the second method, DNA fragmentation was detected via TUNEL assay according to the manufacturer's instructions. With this methodology, 2×10^6 cells were fixed with 2% paraformaldehyde, permeabilized with 0.1% Triton X-100/0.1% citrate, incubated at 37° C. with terminal deoxynucleotidyl transferase and FITC-dUTP, rinsed and analyzed by flow cytometry. Enhanced FITC signal indicates apoptosis-specific DNA fragmentation. Gavriali, et al, "Identification of programmed cell death in situ via specific labeling of nuclear DNA fragmentation," J Cell Biol 119:493 (1992). Parallel aliquots of unfixed cells were treated with PI and FITC-conjugated anti-CD14 and analyzed by flow cytometry, in order to identify cells with permeable cell membranes (since PI binds to DNA but is excluded from cells with intact plasma membranes) and also to determine the cell-specificity of the apoptotic signal.
The effect of taurolidine on granulocytes was assayed by TUNEL analysis on taurolidine-treated purified granulocytes. These experiments were conducted in culture medium rather than whole blood. Granulocytes were treated with 100 μg/ml taurolidine since it had been shown that this concentration of taurolidine is apoptogenic to peripheral blood monocytes treated in culture medium. TUNEL-positive granulocytes ranged from 2% to 30% in untreated samples, and varied according to blood donor. […] Therefore, the apoptogenic effect of taurolidine is not specific to monocytic cells.
^a Analysis by flow cytometry after staining cells with PI and
processing for TUNEL. Data are mean ± SEM of 5 experiments.

GM5387 = assay: subcellular-sized events by flow cytometry, GM5387; format: cell-based, human; settings: GM5387, after taurolidine treatment
Procedure: Less than 0.1% of ECV304 or GM5387 cells were TUNEL-positive 6 hours after treatment with taurolidine or anisomycin (Table VIII). Therefore, neither of these agents induce rapid DNA fragmentation in these cell types. However, there was approximately a 70% increase in the number of subcellular-sized events recorded by flow cytometry after taurolidine treatment of these cells, indicating some effect of taurolidine on cell integrity. These cell fragments were not stained by propidium iodide, consistent with them being apoptotic bodies.

[1] = tested on: other leukemia-derived cell lines; assay: growth after taurolidine treatment, other leukemia-derived cell lines; format: cell-based, human; settings: 50 μg/ml or greater
Procedure: In these experiments, integrity of cell membranes following taurolidine treatment was assessed by exclusion of trypan blue and by measuring the release of LDH in MM6, K-562, HL-60, and REH cells. Since BCS contains significant amounts of LDH, these experiments were conducted on cells cultured in AIM-V+0.01% BCS. Four hour treatment of cells was conducted in AIM-V containing 0.01% BCS in order to allow subsequent LDH assay without interference from BCS (which occurs in when normal culture medium, containing 10% BCS, is used). Thus, MM6 cells (5×10^5 cells/ml) were treated with taurolidine for four hours in AIM-V+0.01% BCS, after which an aliquot of the cell suspension was removed for measurement of LDH release. A parallel aliquot of cells was lysed by three cycles of freeze/thaw and the quantity of LDH released was taken to be 100%. Remaining cells were rinsed in HBSS and resuspended in growth medium for measurement of growth rates.
HL-60 cells treated with 50 μl taurolidine. In these samples, LDH present in the culture medium was 8.3±2.3% of that released by completely lysed cells, compared with 2.3±0.8% measured in control cultures. […] After 4 hour treatment, cells were rinsed and returned to growth medium and monitored for viability and growth over the following 3 days. […]

[2] = septic patients, up to 20 grams for 2-5 consecutive days; cited from earlier work

O=S1(=O)CCN(CN2CCS(=O)(=O)NC2)CN1 [taurolidine, 4,4'-methylenebis(perhydro-1,2,4-thiadiazin 1,1-dioxide)]
inhibition of LPS-induced TF expression (tissue factor (TF); PBMC, taurolidine 75 μg/ml, 4 h): complete inhibition of TF expression
induction of TF in response to LPS (summary) (tissue factor (TF); peripheral blood monocytes or cultured MM6 cells): strongly inhibited the induction of TF
apoptosis of granulocytes (granulocytes; 100 μg/ml taurolidine, within 6 h, culture medium): 92%
cytotoxicity at 100 µg/mL (granulocytes; 6 h, granulocytes, 100 μg/ml taurolidine, mean ± SEM of 5 experiments (Table VII), read-out: % propidium iodide positive): 1.6 ± 0.5%
cytotoxicity at 100 µg/mL (granulocytes; granulocytes, 100 μg/ml, 6 hours (Table V), read-out: % Propidium Iodide Positive Cells): 2%
effectiveness in granulocytes relative to monocytes (granulocytes; TUNEL, purified cells in culture medium): at least as effective
% TUNEL-positive (granulocytes; granulocytes, 100 μg/ml taurolidine, mean ± SEM of 5 experiments (Table VII)): 91.5 ± 3.5%
% TUNEL-Negative Cells (granulocytes; granulocytes, 100 μg/ml, 6 hours (Table V)): 8%
increase in the number of subcellular-sized events (GM5387): ~70%
growth after taurolidine treatment [1]: inhibition of growth
toxicity in humans [2]: has not been associated with toxicity
